Patent US20240293413A1, “COMPOUND AND METHOD FOR TREATING CHEMOTHERAPY-RELATED GASTROINTESTINAL SIDE EFFECTS” (ONQUALITY PHARMACEUTICALS CHINA LTD., priority 2021, published 2024)

Columns and labels:
Type in all cases: in vivo
[1] = tested on: diarrhea caused by a chemotherapeutic agent in Balb/c mice; experiment: Examples 382-405 (Table 7): various administration modes of the CDK inhibitor, relief of diarrhea caused by a chemotherapeutic agent
Method in brief: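 Balb/c mice (10 per group) received a CDK inhibitor by oral gavage, intraperitoneal, intramuscular or topical (shaved abdomen) dosing, followed by a chemotherapeutic agent. Vehicle and chemotherapy-only groups served as controls. Diarrhea was graded daily.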

[2] = tested on: diarrhea caused by a chemotherapeutic agent in Balb/c mice; experiment: Examples 343-381 (Table 6): oral versus intravenous CDK inhibitor, relief of diarrhea caused by a chemotherapeutic agent;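 as to Relative remission rate: percent of treated mice whose diarrhea grade fell below chemotherapy-group average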
Method in brief: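 Balb/c mice (10 per group) received the CDK inhibitor orally or by tail-vein injection, or vehicle, followed by a chemotherapeutic agent or its solvent. Diarrhea grade was scored daily.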

[3] = tested on: diarrhea caused by a chemotherapeutic agent in Balb/c mice; experiment: Examples 230-271 (Table 4): oral CDK inhibitor, relief of diarrhea caused by a chemotherapeutic agent
Method in brief: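 Balb/c mice, 10 per group (vehicle, chemotherapeutic agent, CDK inhibitor plus chemotherapeutic); CDK inhibitor dosed intragastrically before the chemotherapeutic agent by injection or gavage. Diarrhea graded daily.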

CN1CCN(c2ccc(Nc3ncc4cc5n(c4n3)C3(CCCCC3)CNC5=O)nc2)CC1 [Trilaciclib (G1T28), Trilaciclib]
Relative remission rate of other administration mode ([1]; Example 395, Carboplatin (CBP) oral administration 200 mg/kg single, CDK inhibitor local administration 100 mg/kg single, 24 h before, cycle 10 days): 20%
Relative remission rate of oral administration ([1]; Example 395, Carboplatin (CBP) oral administration 200 mg/kg single, CDK inhibitor oral 100 mg/kg single, 24 h before, cycle 10 days): 60%
Relative remission rate of other administration mode ([1]; Example 402, Gemcitabine (GEM) intramuscular injection 120 mg/kg single, CDK inhibitor intramuscular injection 50 mg/kg single, 24 h before, cycle 8 days): 10%
Relative remission rate of oral administration ([1]; Example 402, Gemcitabine (GEM) intramuscular injection 120 mg/kg single, CDK inhibitor oral 50 mg/kg single, 24 h before, cycle 8 days): 40%
Relative remission rate of other administration mode ([1]; Example 404, Gemcitabine and carboplatin intraperitoneal injection 120 (G) 100 (C) mg/kg single, CDK inhibitor intramuscular injection 100 mg/kg single, 12 h before, cycle 8 days): 20%
Relative remission rate of oral administration ([1]; Example 404, Gemcitabine and carboplatin intraperitoneal injection 120 (G) 100 (C) mg/kg single, CDK inhibitor oral 150 mg/kg single, 12 h before, cycle 8 days): 60%
Relative remission rate of other administration mode ([1]; Example 405, Gemcitabine and carboplatin intraperitoneal injection 120 (G) 100 (C) mg/kg single, CDK inhibitor intramuscular injection 100 mg/kg single, 24 h before, cycle 8 days): 10%
Relative remission rate of oral administration ([1]; Example 405, Gemcitabine and carboplatin intraperitoneal injection 120 (G) 100 (C) mg/kg single, CDK inhibitor oral 150 mg/kg single, 24 h before, cycle 8 days): 50%
relief of diarrhea by oral, injection and local administration ([1]; diarrhea caused by docetaxel, carboplatin, gemcitabine, and gemcitabine plus carboplatin, under certain conditions, effect of oral administration most significant): can relieve diarrhea
Relative remission rate ([2]; Example 348, Etoposide intraperitoneal injection 75 mg/kg single, CDK inhibitor intravenous injection 100 mg/kg single, 24 h before, cycle 8 days): 10%
Relative remission rate ([2]; Example 348, Etoposide intraperitoneal injection 75 mg/kg single, CDK inhibitor oral 100 mg/kg, 24 h before, cycle 8 days): 60%
Relative remission rate ([2]; Example 365, Carboplatin (CBP) intravenous injection 120 mg/kg single, CDK inhibitor intravenous injection 100 mg/kg single, 24 h before, cycle 10 days): 10%
Relative remission rate ([2]; Example 365, Carboplatin (CBP) intravenous injection 120 mg/kg single, CDK inhibitor oral 100 mg/kg single, 24 h before, cycle 10 days): 30%
Relative remission rate ([2]; Example 367, Topotecan (TP) intraperitoneal injection 10 mg/kg single, CDK inhibitor intravenous injection 200 mg/kg single, 24 h before, cycle 10 days): 10%
Relative remission rate ([2]; Example 367, Topotecan (TP) intraperitoneal injection 10 mg/kg single, CDK inhibitor oral 100 mg/kg single, 24 h before, cycle 10 days): 30%
Relative remission rate ([2]; Example 377, Gemcitabine (GEM) intramuscular injection 120 mg/kg single, CDK inhibitor intravenous injection 50 mg/kg single, 1 h before, cycle 8 days): 10%
Relative remission rate ([2]; Example 377, Gemcitabine (GEM) intramuscular injection 120 mg/kg single, CDK inhibitor oral 50 mg/kg single, 1 h before, cycle 8 days): 60%
Relative remission rate ([2]; Example 380, Gemcitabine and carboplatin intravenous injection 120 (G) 100 (C) mg/kg single, CDK inhibitor intravenous injection 100 mg/kg single, 0.5 h before, cycle 8 days): 20%
Relative remission rate ([2]; Example 380, Gemcitabine and carboplatin intravenous injection 120 (G) 100 (C) mg/kg single, CDK inhibitor oral 100 mg/kg single, 0.5 h before, cycle 8 days): 60%
Relative remission rate ([2]; Example 381, Gemcitabine and carboplatin intravenous injection 120 (G) 100 (C) mg/kg single, CDK inhibitor intravenous injection 100 mg/kg single, 24 h before, cycle 8 days): 10%
Relative remission rate ([2]; Example 381, Gemcitabine and carboplatin intravenous injection 120 (G) 100 (C) mg/kg single, CDK inhibitor oral 100 mg/kg single, 24 h before, cycle 8 days): 40%
relief of diarrhea by oral administration and injection administration ([2]; diarrhea caused by etoposide, etoposide in combination with cisplatin, carboplatin, gemcitabine, gemcitabine in combination with carboplatin, and topotecan, oral administration has the most significant effect): effectively relieve diarrhea
Relative remission rate ([3]; Example 236, Doxorubicin (Dox) intravenous injection 12 mg/kg single, CDK inhibitor oral 180 mg/kg single, 1 h before, cycle 10 days): 40%
Relative remission rate ([3]; Example 237, Doxorubicin (Dox) intravenous injection 12 mg/kg single, CDK inhibitor oral 180 mg/kg single, 12 h before, cycle 10 days): 60%
Relative remission rate ([3]; Example 238, Doxorubicin (Dox) intravenous injection 12 mg/kg single, CDK inhibitor oral 180 mg/kg single, 24 h before, cycle 10 days): 60%
Relative remission rate ([3]; Example 239, Doxorubicin (Dox) intravenous injection 12 mg/kg single, CDK inhibitor oral 180 mg/kg single, 48 h before, cycle 10 days): 0%
Relative remission rate ([3]; Example 254, Cytarabine (Ara-C) intraperitoneal injection 600 mg/kg single, CDK inhibitor oral 100 mg/kg single, 0.5 h before, cycle 8 days): 60%
Relative remission rate ([3]; Example 255, Cytarabine (Ara-C) intraperitoneal injection 600 mg/kg single, CDK inhibitor oral 100 mg/kg single, 4 h before, cycle 8 days): 80%
Relative remission rate ([3]; Example 256, Cytarabine (Ara-C) intraperitoneal injection 600 mg/kg single, CDK inhibitor oral 100 mg/kg single, 8 h before, cycle 8 days): 80%
Relative remission rate ([3]; Example 257, Cytarabine (Ara-C) intraperitoneal injection 600 mg/kg single, CDK inhibitor oral 100 mg/kg single, 12 h before, cycle 8 days): 60%
Relative remission rate ([3]; Example 258, Cytarabine (Ara-C) intraperitoneal injection 600 mg/kg single, CDK inhibitor oral 100 mg/kg single, 24 h before, cycle 8 days): 40%
Relative remission rate ([3]; Example 259, Cytarabine (Ara-C) intraperitoneal injection 600 mg/kg single, CDK inhibitor oral 100 mg/kg single, 48 h before, cycle 8 days): 0%
Relative remission rate ([3]; Example 270, Vinorelbine (NVB) intramuscular injection 10 mg/kg single, CDK inhibitor oral 50 mg/kg single, 1 h before, cycle 7 days): 50%
